Measured values from the supplement of paper PMC9663587.

How the values were obtained:
[1] = compound: COc1ccc2c(c1)[C@]1(C[C@H]1c1ccc3c(/C=C/c4ccc(CN5C[C@@H](C)O[C@@H](C)C5)cc4)n[nH]c3c1)C(=O)N2
[2] = compound: CO[C@@H](C)Cn1c(=O)n(C)c2cnc3ccc(-c4cncc(C(C)(C)O)c4)cc3c21
Alpelisib/BYL719 = compound: Cc1nc(NC(=O)N2CCC[C@H]2C(N)=O)sc1-c1ccnc(C(C)(C)C(F)(F)F)c1 [Alpelisib/BYL719]
[3] = compound: CC(=O)Nc1cccc(-n2c(=O)n(C3CC3)c(=O)c3c(Nc4ccc(I)cc4F)n(C)c(=O)c(C)c32)c1
[4] = compound: CCCCOc1c(C(=O)c2c(F)cc(C)cc2F)c[nH]c2nncc1-2
Rucaparib = compound: CNCc1ccc(-c2[nH]c3cc(F)cc4c3c2CCNC4=O)cc1 [Rucaparib]
Cediranib/AZD2171 = compound: COc1cc2c(Oc3ccc4[nH]c(C)cc4c3F)ncnc2cc1OCCCN1CCCC1 [Cediranib/AZD2171]
Saracatinib/AZD0530 = compound: CN1CCN(CCOc2cc(OC3CCOCC3)c3c(Nc4c(Cl)ccc5c4OCO5)ncnc3c2)CC1 [Saracatinib/AZD0530]
AZD1775 = compound: C=CCn1c(=O)c2cnc(Nc3ccc(N4CCN(C)CC4)cc3)nc2n1-c1cccc(C(C)(C)O)n1 [AZD1775]
THZ1 [5] = compound: T1, CN(C)C/C=C/C(=O)Nc1ccc(C(=O)Nc2cccc(Nc3ncc(Cl)c(-c4c[nH]c5ccccc45)n3)c2)cc1 [THZ1]
THZ531 [6] = compound: T2, CN(C)C/C=C/C(=O)Nc1ccc(C(=O)N2CCC[C@@H](Nc3ncc(Cl)c(-c4c[nH]c5ccccc45)n3)C2)cc1 [THZ531]
BVD523 = compound: CC(C)Nc1cc(-c2c[nH]c(C(=O)N[C@H](CO)c3cccc(Cl)c3)c2)c(Cl)cn1 [BVD523]
[7] = compound: CC(=O)c1c(C)c2cnc(Nc3ccc(N4CCNCC4)cn3)nc2n(C2CCCC2)c1=O; experiment: increase in dead-cell fraction, 72 h; higher = more death;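 further: breast cancer cell lines in 384-well plates, stained with Hoechst plus LIVE/DEAD far red dye and imaged, cells above an LDR intensity threshold counted dead, Hoechst-negative corpses included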
Neratinib/HKI272 = compound: CCOc1cc2ncc(C#N)c(Nc3ccc(OCc4ccccn4)c(Cl)c3)c2cc1NC(=O)/C=C/CN(C)C [Neratinib/HKI272]; experiment: as above
YKL-5-124 = compound: C=CC(=O)Nc1ccc(C(=O)Nc2[nH]nc3c2CN(C(=O)N[C@H](CN(C)C)c2ccccc2)C3(C)C)cc1 [YKL-5-124]; experiment: as above
BSJ-03-123 = compound: CC(=O)c1c(C)c2cnc(Nc3ccc(N4CCN(CCOCCOCCOCCNC(=O)COc5cccc6c5C(=O)N(C5CCC(=O)NC5=O)C6=O)CC4)cn3)nc2n(C2CCCC2)c1=O [BSJ-03-123]; experiment: as above
LEE011/Ribociclib = compound: CN(C)C(=O)c1cc2cnc(Nc3ccc(N4CCNCC4)cn3)nc2n1C1CCCC1 [LEE011/Ribociclib]; experiment: as above
[8] = compound: CCc1cnn2c(NCc3ccc[n+]([O-])c3)cc(N3CCCC[C@H]3CCO)nc12; experiment: as above
THZ1 [9] = compound: T1, THZ1; experiment: as above
THZ531 [10] = compound: T2, THZ531; experiment: as above
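Wherever GR50, 72 h is given: breast cancer and non-malignant breast epithelial cell lines, Deep Dye Drop or Dye Drop imaging, nine half-log doses, GR normalized to time-zero plates and DMSO-only controls.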

Cell Line: HCC1395
- GR50, 72 h [1]: 0.00377 µM
- GR50, 72 h [2]: 0.00497 µM
- GR50, 72 h (Alpelisib/BYL719): > 10 µM
- GR50, 72 h [3]: 0.172 µM
- GR50, 72 h [4]: 0.00575 µM
- GR50, 72 h (Rucaparib): 0.957 µM
- GR50, 72 h (Cediranib/AZD2171): 1.59 µM
- GR50, 72 h (Saracatinib/AZD0530): 3.76 µM
- GR50, 72 h (AZD1775): 0.00604 µM
- GR50, 72 h (THZ1 [5]): 0.022 µM
- GR50, 72 h (THZ531 [6]): 0.0785 µM
- GR50, 72 h (BVD523): 1.72 µM
- increase in dead-cell fraction ([7]; 0.0003162 µM): -0.0002
- increase in dead-cell fraction ([7]; 0.001 µM): -0.0025
- increase in dead-cell fraction ([7]; 0.003162 µM): -0.0071
- increase in dead-cell fraction ([7]; 0.01 µM): 0.0129
- increase in dead-cell fraction ([7]; 0.03162 µM): 0.0232
- increase in dead-cell fraction ([7]; 0.1 µM): 0.0283
- increase in dead-cell fraction ([7]; 0.3162 µM): 0.0367
- increase in dead-cell fraction ([7]; 1 µM): 0.0326
- increase in dead-cell fraction ([7]; 3.162 µM): 0.0325
- increase in dead-cell fraction (Neratinib/HKI272; 0.0003162 µM): 0.0064
- increase in dead-cell fraction (Neratinib/HKI272; 0.001 µM): -0.004
- increase in dead-cell fraction (Neratinib/HKI272; 0.003162 µM): 0.0024
- increase in dead-cell fraction (Neratinib/HKI272; 0.01 µM): 0.0027
- increase in dead-cell fraction (Neratinib/HKI272; 0.03162 µM): -0.0039
- increase in dead-cell fraction (Neratinib/HKI272; 0.1 µM): 0.0013
- increase in dead-cell fraction (Neratinib/HKI272; 0.3162 µM): 0.0091
- increase in dead-cell fraction (Neratinib/HKI272; 1 µM): 0.012
- increase in dead-cell fraction (Neratinib/HKI272; 3.162 µM): 0.141
- increase in dead-cell fraction (YKL-5-124; 0.001 µM): 0.0251
- increase in dead-cell fraction (YKL-5-124; 0.003162 µM): 0.0285
- increase in dead-cell fraction (YKL-5-124; 0.01 µM): 0.0648
- increase in dead-cell fraction (YKL-5-124; 0.03162 µM): 0.0466
- increase in dead-cell fraction (YKL-5-124; 0.1 µM): 0.0638
- increase in dead-cell fraction (YKL-5-124; 0.3162 µM): 0.0762
- increase in dead-cell fraction (YKL-5-124; 1 µM): 0.0835
- increase in dead-cell fraction (YKL-5-124; 3.162 µM): 0.0876
- increase in dead-cell fraction (YKL-5-124; 10 µM): 0.152
- increase in dead-cell fraction (BSJ-03-123; 0.001 µM): 0.0154
- increase in dead-cell fraction (BSJ-03-123; 0.003162 µM): 0.0016
- increase in dead-cell fraction (BSJ-03-123; 0.01 µM): 0.0046
- increase in dead-cell fraction (BSJ-03-123; 0.03162 µM): 0.0156
- increase in dead-cell fraction (BSJ-03-123; 0.1 µM): 0.0199
- increase in dead-cell fraction (BSJ-03-123; 0.3162 µM): 0.0113
- increase in dead-cell fraction (BSJ-03-123; 1 µM): 0.0316
- increase in dead-cell fraction (BSJ-03-123; 3.162 µM): 0.0201
- increase in dead-cell fraction (BSJ-03-123; 10 µM): 0.13
- increase in dead-cell fraction (LEE011/Ribociclib; 0.001 µM): -0.0137
- increase in dead-cell fraction (LEE011/Ribociclib; 0.003162 µM): 0.0153
- increase in dead-cell fraction (LEE011/Ribociclib; 0.01 µM): 0.0143
- increase in dead-cell fraction (LEE011/Ribociclib; 0.03162 µM): 0.0111
- increase in dead-cell fraction (LEE011/Ribociclib; 0.1 µM): 0.0234
- increase in dead-cell fraction (LEE011/Ribociclib; 0.3162 µM): 0.0259
- increase in dead-cell fraction (LEE011/Ribociclib; 1 µM): 0.0472
- increase in dead-cell fraction (LEE011/Ribociclib; 3.162 µM): 0.0158
- increase in dead-cell fraction (LEE011/Ribociclib; 10 µM): 0.0578
- increase in dead-cell fraction ([8]; 0.0001 µM): 0.005
- increase in dead-cell fraction ([8]; 0.0003162 µM): -0.0006
- increase in dead-cell fraction ([8]; 0.001 µM): -0.004
- increase in dead-cell fraction ([8]; 0.003162 µM): 0.0091
- increase in dead-cell fraction ([8]; 0.01 µM): 0.0238
- increase in dead-cell fraction ([8]; 0.03162 µM): 0.263
- increase in dead-cell fraction ([8]; 0.1 µM): 0.368
- increase in dead-cell fraction ([8]; 0.3162 µM): 0.378
- increase in dead-cell fraction ([8]; 1 µM): 0.387
- increase in dead-cell fraction (THZ1 [9]; 0.0001 µM): -0.017
- increase in dead-cell fraction (THZ1 [9]; 0.0003162 µM): -0.002
- increase in dead-cell fraction (THZ1 [9]; 0.001 µM): -0.0182
- increase in dead-cell fraction (THZ1 [9]; 0.003162 µM): 0.0057
- increase in dead-cell fraction (THZ1 [9]; 0.01 µM): 0.0001
- increase in dead-cell fraction (THZ1 [9]; 0.03162 µM): 0.0489
- increase in dead-cell fraction (THZ1 [9]; 0.1 µM): 0.193
- increase in dead-cell fraction (THZ1 [9]; 0.3162 µM): 0.25
- increase in dead-cell fraction (THZ1 [9]; 1 µM): 0.469
- increase in dead-cell fraction (THZ531 [10]; 0.0001 µM): 0.0083
- increase in dead-cell fraction (THZ531 [10]; 0.0003162 µM): -0.0121
- increase in dead-cell fraction (THZ531 [10]; 0.001 µM): 0.0071
- increase in dead-cell fraction (THZ531 [10]; 0.003162 µM): 0.0027
- increase in dead-cell fraction (THZ531 [10]; 0.01 µM): -0.0161
- increase in dead-cell fraction (THZ531 [10]; 0.03162 µM): -0.0019
- increase in dead-cell fraction (THZ531 [10]; 0.1 µM): 0.0618
- increase in dead-cell fraction (THZ531 [10]; 0.3162 µM): 0.113
- increase in dead-cell fraction (THZ531 [10]; 1 µM): 0.242
